Structures are written as SMILES.

The test system of one test is HCV replicon. As to the kind of experiment: HCV replicon FRET assay. The format is cell-based. The note with it: Hepatitis C virus, Table 1; FRET assay; read-out: EC50*. The gist of the method: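 HCV replicon cells, with or without Renilla luciferase reporter, incubated with titrated compounds at 37 °C; Alamar blue read for cytotoxicity. NS3 protease activity read from lysates with 20 μM EDANS/DABCYL FRET peptide (340/490 nm, kinetic), or by Dual-Glo luciferase. Background from highest protease-inhibitor wells; EC50 = 50% signal reduction.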
In general terms: A replicon is a self-replicating genome or part of one, used to study replication in cells.

A further test deals with T1, HCV NS5B (Hepatitis C virus genotype 1b, UniProt Q9WMX2).
T1 construct: The protein was expressed with an 18 amino acid C-terminal truncation to enhance the solubility; made in house; host or cells: E. coli BL21 (DE3), pET21a
T1 sequence (Q9WMX2 2420-2992): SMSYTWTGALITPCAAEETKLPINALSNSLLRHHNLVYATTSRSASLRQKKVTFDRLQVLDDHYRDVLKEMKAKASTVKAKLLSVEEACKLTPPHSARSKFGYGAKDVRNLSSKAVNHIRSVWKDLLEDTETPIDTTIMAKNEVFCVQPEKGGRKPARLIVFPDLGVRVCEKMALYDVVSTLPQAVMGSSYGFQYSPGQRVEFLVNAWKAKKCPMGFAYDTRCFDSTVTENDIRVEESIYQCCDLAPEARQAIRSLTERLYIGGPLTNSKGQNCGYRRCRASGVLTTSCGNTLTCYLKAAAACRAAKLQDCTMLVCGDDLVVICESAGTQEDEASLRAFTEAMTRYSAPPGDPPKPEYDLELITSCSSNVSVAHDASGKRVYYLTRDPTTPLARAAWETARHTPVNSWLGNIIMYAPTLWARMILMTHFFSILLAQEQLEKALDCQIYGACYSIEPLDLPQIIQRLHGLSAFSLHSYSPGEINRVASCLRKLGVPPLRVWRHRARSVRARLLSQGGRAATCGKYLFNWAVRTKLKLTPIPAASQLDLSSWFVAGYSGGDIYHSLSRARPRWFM
As to the kind of experiment: HCV NS5B RdRp enzyme assay (preincubation protocol). It counts as biochemical. As to conditions: Table 1, read-out: IC50*. The gist of the method:
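C-terminally truncated (Δ18) genotype 1b NS5B from E. coli, 14 nM, added to compound, then polyA template (0.2 nM), 3H-UTP (0.29 μM) and oligo-dT12 primer precaptured on streptavidin SPA beads. 4 h at 30 °C, pH 7.5, 2% DMSO; SPA readout; IC50 from seven concentrations by logistic fit.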

With `CN(C)S(=O)(=O)NC(=O)c1ccc2c(C3CCCCC3)c3n(c2c1)CC(C(=O)N1CCN(S(C)(=O)=O)CC1)=Cc1ccccc1-3`, the EC50 (commonly the concentration at which the effect is half-maximal) with HCV replicon was in the range of 0.07 to 1 µM. The IC50 (usually the point on the concentration scale where inhibition reaches its midpoint) on HCV NS5B was 0.01 to 1 µM.
The like results for `CC(=O)N1CCN(C(=O)C2=Cc3ccccc3-c3c(C4CCCCC4)c4ccc(C(=O)NS(=O)(=O)N(C)C)cc4n3C2)CC1` were, in that order, 0.07 to 1 µM and 0.01 to 1 µM.
Regarding `CN(C)S(=O)(=O)NC(=O)c1ccc2c(C3CCCCC3)c3n(c2c1)CC(C(=O)N1CCN(c2ccccc2)CC1)=Cc1ccccc1-3`, in the test with HCV replicon, the EC50 is 0.07 to 1 µM. Further, the IC50 at HCV NS5B fell in the range of 0.01 to 1 µM.
Turning to `Cc1ccc(S(=O)(=O)N2CCN(C(=O)C3=Cc4ccccc4-c4c(C5CCCCC5)c5ccc(C(=O)NS(=O)(=O)N(C)C)cc5n4C3)CC2)cc1`, the EC50 in the test with HCV replicon fell in the range of 0.07 to 1 µM. On HCV NS5B, the IC50 lay in the range of 0.01 to 1 µM.
The like results for `CC1CN(C(=O)OC(C)(C)C)CCN1C(=O)C1=Cc2ccccc2-c2c(C3CCCCC3)c3ccc(C(=O)NS(=O)(=O)N(C)C)cc3n2C1` (stereo not shown) were, in that order, 0.07 to 1 µM and 0.01 to 1 µM.
Consider `COc1ccc(S(=O)(=O)N2CCN(C(=O)C3=Cc4ccccc4-c4c(C5CCCCC5)c5ccc(C(=O)NS(=O)(=O)N(C)C)cc5n4C3)CC2)cc1`, for which the EC50 with HCV replicon was 0.07 to 1 µM. At HCV NS5B, the half-inhibitory concentration (IC50) lay within 0.01 to 1 µM.
The matching figures for `CCOC(=O)CN1CCN(C(=O)C2=Cc3ccccc3-c3c(C4CCCCC4)c4ccc(C(=O)NS(=O)(=O)N(C)C)cc4n3C2)CC1`: 0.07 to 1 µM and 0.01 to 1 µM.
Turning to `CN(C)S(=O)(=O)NC(=O)c1ccc2c(C3CCCCC3)c3n(c2c1)CC(C(=O)N1CCC(N2CCOCC2)CC1)=Cc1ccc(Cl)cc1-3`, in the test on HCV replicon, the EC50 lay in the range of 1 to 10 µM. Further, the IC50 at HCV NS5B is over 1 µM.
For the compound `COC(=O)c1ccc2c(C3CCCCC3)c3n(c2c1)CC(NC(=O)N1CCC(N2CCOCC2)CC1)Cc1ccccc1-3` (stereo not shown), in the test on HCV replicon, the EC50 was over 0.12 µM. The IC50 on HCV NS5B fell in the range of 0.01 to 1 µM.
On to `O=C(O)c1ccc2c(C3CCCCC3)c3n(c2c1)CC(NC(=O)N1CCC(N2CCOCC2)CC1)Cc1ccccc1-3` (stereo not shown), for which the EC50 with HCV replicon is 0.07 to 1 µM. For the same compound, at HCV NS5B, the IC50 lay within 0.01 to 1 µM.
As to `COC(=O)c1ccc2c(C3CCCCC3)c3n(c2c1)CC(C(=O)N1CCCC(F)C1)=Cc1ccccc1-3` (stereo not shown), the EC50 with HCV replicon was over 0.37 µM. The IC50 at HCV NS5B lay within 0.01 to 1 µM.
The matching figures for `COC(=O)c1ccc2c(C3CCCCC3)c3n(c2c1)CC(C(=O)N1CCC(N2CCCC(F)C2)CC1)=Cc1ccccc1-3` (stereo not shown): over 0.37 µM and over 1 µM.
The matching figures for `COC(=O)c1ccc2c(C3CCCCC3)c3n(c2c1)CC(C(=O)N1CCC(N2CCCC(F)(F)C2)CC1)=Cc1ccccc1-3`: over 0.37 µM and over 1 µM.
Regarding `COC(=O)c1ccc2c(C3CCCCC3)c3n(c2c1)CC(C(=O)N1CC[C@H](F)C1)=Cc1ccccc1-3`, the EC50 in the test on HCV replicon was over 0.37 µM. Moreover, the IC50 at HCV NS5B was over 1 µM.
The like results for `COC(=O)c1ccc2c(C3CCCCC3)c3n(c2c1)CC(C(=O)N1CCC(N2CC[C@@H](F)C2)CC1)=Cc1ccccc1-3` were, in that order, over 0.37 µM and over 1 µM.
The matching figures for `COC(=O)c1ccc2c(C3CCCCC3)c3n(c2c1)CC(C(=O)N1CCC(N2CCC(F)CC2)CC1)=Cc1ccccc1-3`: over 0.37 µM and over 1 µM.
The like results for `COC(=O)c1ccc2c(C3CCCCC3)c3n(c2c1)CC(C(=O)N1CCCC(=O)N1)=Cc1ccccc1-3` were, in that order, 1 to 10 µM and over 1 µM.
On to `COC(=O)c1ccc2c(C3CCCCC3)c3n(c2c1)CC(C(=O)N1CCCC(C(N)=O)C1)=Cc1ccccc1-3` (stereo not shown), for which the concentration for a half-maximal effect (EC50) in the test with HCV replicon was 1 to 10 µM. Further, on HCV NS5B, the concentration for half-maximal inhibition (IC50) is over 1 µM.
Consider `O=C(O)c1ccc2c(C3CCCCC3)c3n(c2c1)CC(C(=O)N1CCCC(F)C1)=Cc1ccccc1-3` (stereo not shown), for which, in the test with HCV replicon, the EC50 was in the range of 1 to 10 µM. For the same compound, the IC50 at HCV NS5B was in the range of 0.01 to 1 µM.
As to `O=C(O)c1ccc2c(C3CCCCC3)c3n(c2c1)CC(C(=O)N1CCC(N2CCCC(F)C2)CC1)=Cc1ccccc1-3` (stereo not shown), the EC50 with HCV replicon fell in the range of 0.07 to 1 µM. At HCV NS5B, the IC50 lay in the range of 0.01 to 1 µM.
The matching figures for `O=C(O)c1ccc2c(C3CCCCC3)c3n(c2c1)CC(C(=O)N1CCC(N2CCCC(F)(F)C2)CC1)=Cc1ccccc1-3`: 0.07 to 1 µM and 0.01 to 1 µM.
The like results for `O=C(O)c1ccc2c(C3CCCCC3)c3n(c2c1)CC(C(=O)N1CC[C@@H](F)C1)=Cc1ccccc1-3` were, in that order, 0.07 to 1 µM and 0.01 to 1 µM.
On to `O=C(O)c1ccc2c(C3CCCCC3)c3n(c2c1)CC(C(=O)N1CC[C@H](F)C1)=Cc1ccccc1-3`, for which the EC50 in the test on HCV replicon was 0.07 to 1 µM. Besides, the IC50 on HCV NS5B was 0.01 to 1 µM.
The like results for `O=C(O)c1ccc2c(C3CCCCC3)c3n(c2c1)CC(C(=O)N1CCC(N2CC[C@@H](F)C2)CC1)=Cc1ccccc1-3` were, in that order, 0.07 to 1 µM and 0.01 to 1 µM.
In the case of `O=C(O)c1ccc2c(C3CCCCC3)c3n(c2c1)CC(C(=O)N1CCC(N2CC[C@H](F)C2)CC1)=Cc1ccccc1-3`, the EC50 with HCV replicon lay within 0.07 to 1 µM. For the same compound, at HCV NS5B, the IC50 is 0.01 to 1 µM.
Regarding `O=C(O)c1ccc2c(C3CCCCC3)c3n(c2c1)CC(C(=O)N1CCC(N2CCC(F)CC2)CC1)=Cc1ccccc1-3`, the EC50 in the test on HCV replicon is 0.07 to 1 µM. Besides, the IC50 on HCV NS5B lay within 0.01 to 1 µM.
The matching figures for `O=C1CCCN(C(=O)C2=Cc3ccccc3-c3c(C4CCCCC4)c4ccc(C(=O)O)cc4n3C2)N1`: 1 to 10 µM and 0.01 to 1 µM.
The matching figures for `NC(=O)C1CCCN(C(=O)C2Cc3ccccc3-c3c(C4CCCCC4)c4ccc(C(=O)O)cc4n3C2)C1` (stereo not shown): 1 to 10 µM and 0.01 to 1 µM.
Consider `CN(C)S(=O)(=O)NC(=O)c1ccc2c(C3CCCCC3)c3n(c2c1)CC(C(=O)N1CCCC(F)C1)=Cc1ccccc1-3` (stereo not shown), for which, in the test on HCV replicon, the EC50 was 0.07 to 1 µM. Also, on HCV NS5B, the IC50 fell in the range of 0.01 to 1 µM.
For `CN(C)S(=O)(=O)NC(=O)c1ccc2c(C3CCCCC3)c3n(c2c1)CC(C(=O)N1CCC(N2CCCC(F)C2)CC1)=Cc1ccccc1-3` (stereo not shown), the EC50 with HCV replicon lay within 0.07 to 1 µM. In addition, on HCV NS5B, the concentration for half-maximal inhibition (IC50) lay within 0.01 to 1 µM.
The like results for `CN(C)S(=O)(=O)NC(=O)c1ccc2c(C3CCCCC3)c3n(c2c1)CC(C(=O)N1CCC(N2CCCC(F)(F)C2)CC1)=Cc1ccccc1-3` were, in that order, 0.07 to 1 µM and 0.01 to 1 µM.
With `CN(C)S(=O)(=O)NC(=O)c1ccc2c(C3CCCCC3)c3n(c2c1)CC(C(=O)N1CC[C@@H](F)C1)=Cc1ccccc1-3`, the EC50 with HCV replicon was in the range of 0.07 to 1 µM. Further, the IC50 at HCV NS5B is 0.01 to 1 µM.
The matching figures for `CN(C)S(=O)(=O)NC(=O)c1ccc2c(C3CCCCC3)c3n(c2c1)CC(C(=O)N1CC[C@H](F)C1)=Cc1ccccc1-3`: 0.07 to 1 µM and 0.01 to 1 µM.
The matching figures for `CN(C)S(=O)(=O)NC(=O)c1ccc2c(C3CCCCC3)c3n(c2c1)CC(C(=O)N1CCC(N2CC[C@@H](F)C2)CC1)=Cc1ccccc1-3`: 0.07 to 1 µM and 0.01 to 1 µM.
The matching figures for `CN(C)S(=O)(=O)NC(=O)c1ccc2c(C3CCCCC3)c3n(c2c1)CC(C(=O)N1CCC(N2CC[C@H](F)C2)CC1)=Cc1ccccc1-3`: 0.07 to 1 µM and 0.01 to 1 µM.
For `CN(C)S(=O)(=O)NC(=O)c1ccc2c(C3CCCCC3)c3n(c2c1)CC(C(=O)N1CCC(N2CCC(F)CC2)CC1)=Cc1ccccc1-3`, in the test with HCV replicon, the EC50 was 0.07 to 1 µM. Further, the IC50 on HCV NS5B was in the range of 0.01 to 1 µM.
The like results for `CN(C)S(=O)(=O)NC(=O)c1ccc2c(C3CCCCC3)c3n(c2c1)CC(C(=O)N1CCCC(C(N)=O)C1)=Cc1ccccc1-3` (stereo not shown) were, in that order, 0.07 to 1 µM and 0.01 to 1 µM.
With `O=C(O)c1ccc2c(C3CCCCC3)c3n(c2c1)C/C(=N/O)Cc1ccccc1-3`, the half-maximal effective concentration (EC50) with HCV replicon lay within 1 to 10 µM. Moreover, the IC50 on HCV NS5B was in the range of 0.01 to 1 µM.

These data come from patent US7473688B2, “Indolobenzazepine HCV NS5B inhibitors” (Bristol-Myers Squibb Company, priority 2005, dated 2009).
